Read-outs that look alike come from different tables or passages of the source. Bounds are passed on as bounds.

This assay relates to compound-treated mice. The assay is described as follows: Neuropharmacological assay (SmartCube): behavioral activity signature and minimal effective dose. The class given is in vivo. As to conditions: for minimal effective dose: Mus musculus, ip, MED = dose having 50% or more total activity; for AD: ADHD (probability of activity signature) / AG: analgesic (probability of activity signature) / AX: anxiolytic (probability of activity signature) / CE: cognitive enhancer (probability of activity signature) / DP: anti-depressant (probability of activity signature) / MS: mood stabilizer (probability of activity signature) / PS: anti-psychotic (probability of activity signature) / SD: sedative hypnotic (probability of activity signature) / UN: uncharacterized CNS activity (probability of activity signature): i.p. 15 min before test, most efficacious dose(s). The method, boiled down: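 Mice dosed i.p. 15 min before test, compound in N-methyl-2-pyrrolidone/PEG/propylene glycol, 3 doses; video-captured behavior matched to reference-drug signatures, giving per-class probabilities at most efficacious dose. MED from doses typically 0.3–30 mpk, defined as lowest dose with ≥50% total activity.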

Setting [1] is: read-out: Potency: minimal effective dose (MED), binned.
Setting [2] is: read-out: Potency: minimal effective dose (MED).

In general, minimal effective dose refers to the smallest amount tested that counted as effective. As to `C[C@H]1OCc2ccc3c(c2[C@@H]1N)CCCO3.Cl` [Example 249], the “AD: ADHD (probability of activity signature)” value (from here on “AD: ADHD”) is on record as “+ (LOQ ≤ + <5%)”, the “AG: analgesic (probability of activity signature)” value (“AG: analgesic” below) was “++ (5% ≤ ++ <25%)”, the “AX: anxiolytic (probability of activity signature)” value (“AX: anxiolytic” below) is on record as “++ (5% ≤ ++ <25%)” and the “CE: cognitive enhancer (probability of activity signature)” value (“CE: cognitive enhancer” for short) is reported as “++ (5% ≤ ++ <25%)”. The “DP: anti-depressant (probability of activity signature)” value (from here on “DP: anti-depressant”) is given as “+ (LOQ ≤ + <5%)”, the “MS: mood stabilizer (probability of activity signature)” value (shortened to “MS: mood stabilizer”) is on record as “+ (LOQ ≤ + <5%)”, the “PS: anti-psychotic (probability of activity signature)” value (“PS: anti-psychotic” below) was “++ (5% ≤ ++ <25%)” and the “SD: sedative hypnotic (probability of activity signature)” value (“SD: sedative hypnotic” for short) is reported as “+ (LOQ ≤ + <5%)”. Further, the “UN: uncharacterized CNS activity (probability of activity signature)” value (“UN: uncharacterized CNS activity” for short) is given as “+++ (25% ≤ +++ <50%)”. Also, the minimal effective dose under setting [1] was in the range of 3 to 10 mg/kg.

For the compound `C[C@H]1OCc2ccc3ccccc3c2[C@@H]1N.Cl` (single isomer, unassigned) [Example 90], the “AD: ADHD” value is recorded as “+ (LOQ ≤ + <5%)”, the “AG: analgesic” value is “++ (5% ≤ ++ <25%)”, the “AX: anxiolytic” value was “+++ (25% ≤ +++ <50%)” and the “CE: cognitive enhancer” value is “++ (5% ≤ ++ <25%)”. For the same compound, the “DP: anti-depressant” value is “++ (5% ≤ ++ <25%)”, the “MS: mood stabilizer” value was “+ (LOQ ≤ + <5%)”, the “PS: anti-psychotic” value is listed as “+ (LOQ ≤ + <5%)” and the “SD: sedative hypnotic” value was “++ (5% ≤ ++ <25%)”. Besides, the “UN: uncharacterized CNS activity” value is given as “+ (LOQ ≤ + <5%)”. For the same compound, under setting [2], the minimal effective dose is 10 to 30 mg/kg.

With `CCN(C)C(=O)Oc1ccc2c(c1)C(N(C)C)COC2.Cl` (stereo not drawn) [Example 284], the “AD: ADHD” value is on record as “+ (LOQ ≤ + <5%)”, the “AG: analgesic” value is listed as “+ (LOQ ≤ + <5%)”, the “AX: anxiolytic” value is “++ (5% ≤ ++ <25%)” and the “CE: cognitive enhancer” value is “+ (LOQ ≤ + <5%)”. Besides, the “DP: anti-depressant” value was “++ (5% ≤ ++ <25%)”, the “MS: mood stabilizer” value is on record as “+++ (25% ≤ +++ <50%)”, the “PS: anti-psychotic” value is recorded as “++ (5% ≤ ++ <25%)” and the “SD: sedative hypnotic” value is “++ (5% ≤ ++ <25%)”. Also, the “UN: uncharacterized CNS activity” value is recorded as “+ (LOQ ≤ + <5%)”. The minimal effective dose under setting [1] lay within 10 to 30 mg/kg.

For `CC[C@H]1OCc2ccccc2[C@@H]1N(C)C.Cl` (single isomer, unassigned) [Example 261], the “AD: ADHD” value is on record as “++ (5% ≤ ++ <25%)”, the “AG: analgesic” value is “+ (LOQ ≤ + <5%)”, the “AX: anxiolytic” value was “+ (LOQ ≤ + <5%)” and the “CE: cognitive enhancer” value is recorded as “+ (LOQ ≤ + <5%)”. Further, the “DP: anti-depressant” value is given as “++++ (50% ≤ ++++)”, the “MS: mood stabilizer” value is listed as “+ (LOQ ≤ + <5%)”, the “PS: anti-psychotic” value is on record as “+ (LOQ ≤ + <5%)” and the “SD: sedative hypnotic” value is “++ (5% ≤ ++ <25%)”. Also, the “UN: uncharacterized CNS activity” value is “++ (5% ≤ ++ <25%)”. In addition, the minimal effective dose under setting [1] fell in the range of 10 to 30 mg/kg.

For the compound `COc1ccc2c(c1)[C@H](N)[C@@H](C)OC2.Cl` [Example 85], the “AD: ADHD” value is listed as “+ (LOQ ≤ + <5%)”, the “AG: analgesic” value is reported as “+++ (25% ≤ +++ <50%)”, the “AX: anxiolytic” value is on record as “++ (5% ≤ ++ <25%)” and the “CE: cognitive enhancer” value is given as “++ (5% ≤ ++ <25%)”. The “DP: anti-depressant” value is given as “++ (5% ≤ ++ <25%)”, the “MS: mood stabilizer” value was “+ (LOQ ≤ + <5%)”, the “PS: anti-psychotic” value is recorded as “+ (LOQ ≤ + <5%)” and the “SD: sedative hypnotic” value is “+ (LOQ ≤ + <5%)”. In addition, the “UN: uncharacterized CNS activity” value is reported as “+++ (25% ≤ +++ <50%)”. The minimal effective dose under setting [2] was in the range of 3 to 10 mg/kg.

Turning to `N[C@H]1COCc2ccc(Cl)c(Cl)c21` (single isomer, unassigned) [Example 120], the “AD: ADHD” value is “+ (LOQ ≤ + <5%)”, the “AG: analgesic” value is “++ (5% ≤ ++ <25%)”, the “AX: anxiolytic” value is recorded as “+++ (25% ≤ +++ <50%)” and the “CE: cognitive enhancer” value is “++ (5% ≤ ++ <25%)”. Besides, the “DP: anti-depressant” value was “++ (5% ≤ ++ <25%)”, the “MS: mood stabilizer” value is “+ (LOQ ≤ + <5%)”, the “PS: anti-psychotic” value is on record as “++ (5% ≤ ++ <25%)” and the “SD: sedative hypnotic” value is on record as “++ (5% ≤ ++ <25%)”. In addition, the “UN: uncharacterized CNS activity” value is listed as “++ (5% ≤ ++ <25%)”. Further, the minimal effective dose under setting [2] was in the range of 3 to 10 mg/kg.

Consider `CCc1cccc2c1COCC2N.Cl` (stereo not drawn) [Example 17, 8-Ethylisochroman-4-amine hydrochloride], for which the “AD: ADHD” value is reported as “+ (LOQ ≤ + <5%)”, the “AG: analgesic” value is on record as “++ (5% ≤ ++ <25%)”, the “AX: anxiolytic” value was “+++ (25% ≤ +++ <50%)” and the “CE: cognitive enhancer” value is “++ (5% ≤ ++ <25%)”. Further, the “DP: anti-depressant” value is “++ (5% ≤ ++ <25%)”, the “MS: mood stabilizer” value was “+ (LOQ ≤ + <5%)”, the “PS: anti-psychotic” value is reported as “++ (5% ≤ ++ <25%)” and the “SD: sedative hypnotic” value was “+ (LOQ ≤ + <5%)”. The “UN: uncharacterized CNS activity” value is given as “+++ (25% ≤ +++ <50%)”. The minimal effective dose under setting [2] is 10 to 30 mg/kg.

Turning to `Cl.NC1CCOCc2ccccc21` (stereo not drawn) [Example 33, 1,3,4,5-Tetrahydrobenzo[c]oxepin-5-amine hydrochloride], the “AD: ADHD” value is reported as “+ (LOQ ≤ + <5%)”, the “AG: analgesic” value is “++ (5% ≤ ++ <25%)”, the “AX: anxiolytic” value was “++ (5% ≤ ++ <25%)” and the “CE: cognitive enhancer” value is “++ (5% ≤ ++ <25%)”. Moreover, the “DP: anti-depressant” value is on record as “+ (LOQ ≤ + <5%)”, the “MS: mood stabilizer” value is listed as “+ (LOQ ≤ + <5%)”, the “PS: anti-psychotic” value was “++ (5% ≤ ++ <25%)” and the “SD: sedative hypnotic” value is on record as “+ (LOQ ≤ + <5%)”. Also, the “UN: uncharacterized CNS activity” value is “+++ (25% ≤ +++ <50%)”. Further, under setting [2], the minimal effective dose lay in the range of 10 to 30 mg/kg.

On to `N[C@H]1COCc2cccc(Cl)c21` [Example 128], for which the “AD: ADHD” value was “+ (LOQ ≤ + <5%)”, the “AG: analgesic” value is on record as “++ (5% ≤ ++ <25%)”, the “AX: anxiolytic” value is given as “++ (5% ≤ ++ <25%)” and the “CE: cognitive enhancer” value was “+++ (25% ≤ +++ <50%)”. The “DP: anti-depressant” value is given as “++ (5% ≤ ++ <25%)”, the “MS: mood stabilizer” value is given as “+ (LOQ ≤ + <5%)”, the “PS: anti-psychotic” value was “++ (5% ≤ ++ <25%)” and the “SD: sedative hypnotic” value is “+ (LOQ ≤ + <5%)”. Further, the “UN: uncharacterized CNS activity” value was “+++ (25% ≤ +++ <50%)”. The minimal effective dose under setting [2] was < 3 mg/kg.

For the compound `Cc1cccc2c1COC[C@H]2N` (single isomer, unassigned) [Example 129], the “AD: ADHD” value is “+ (LOQ ≤ + <5%)”, the “AG: analgesic” value is given as “++ (5% ≤ ++ <25%)”, the “AX: anxiolytic” value is recorded as “+++ (25% ≤ +++ <50%)” and the “CE: cognitive enhancer” value is “++ (5% ≤ ++ <25%)”. Moreover, the “DP: anti-depressant” value is recorded as “++ (5% ≤ ++ <25%)”, the “MS: mood stabilizer” value is on record as “+ (LOQ ≤ + <5%)”, the “PS: anti-psychotic” value is recorded as “++ (5% ≤ ++ <25%)” and the “SD: sedative hypnotic” value is listed as “++ (5% ≤ ++ <25%)”. The “UN: uncharacterized CNS activity” value is given as “+++ (25% ≤ +++ <50%)”. Also, the minimal effective dose under setting [2] lay within 3 to 10 mg/kg.

Consider `C[C@@H]1OCc2cccc(Cl)c2[C@@H]1N.Cl` [Example 80], for which the “AD: ADHD” value is recorded as “+ (LOQ ≤ + <5%)”, the “AG: analgesic” value was “++ (5% ≤ ++ <25%)”, the “AX: anxiolytic” value is “+++ (25% ≤ +++ <50%)” and the “CE: cognitive enhancer” value is recorded as “+ (LOQ ≤ + <5%)”. In addition, the “DP: anti-depressant” value is “+ (LOQ ≤ + <5%)”, the “MS: mood stabilizer” value is recorded as “+ (LOQ ≤ + <5%)”, the “PS: anti-psychotic” value is reported as “++ (5% ≤ ++ <25%)” and the “SD: sedative hypnotic” value is listed as “++ (5% ≤ ++ <25%)”. Also, the “UN: uncharacterized CNS activity” value was “+++ (25% ≤ +++ <50%)”. The minimal effective dose under setting [2] is < 3 mg/kg.

Regarding `Cc1ccc(Cl)c2c1[C@@H](N)COC2` (single isomer, unassigned) [Example 176], the “AD: ADHD” value is given as “+ (LOQ ≤ + <5%)”, the “AG: analgesic” value is recorded as “+ (LOQ ≤ + <5%)”, the “AX: anxiolytic” value was “++ (5% ≤ ++ <25%)” and the “CE: cognitive enhancer” value was “++ (5% ≤ ++ <25%)”. Further, the “DP: anti-depressant” value is “++ (5% ≤ ++ <25%)”, the “MS: mood stabilizer” value is reported as “+ (LOQ ≤ + <5%)”, the “PS: anti-psychotic” value is “++ (5% ≤ ++ <25%)” and the “SD: sedative hypnotic” value is given as “+ (LOQ ≤ + <5%)”. Further, the “UN: uncharacterized CNS activity” value is “++++ (50% ≤ ++++)”. For the same compound, the minimal effective dose under setting [1] fell in the range of 3 to 10 mg/kg.

For the origin of these results see patent publication US11077090B2, “Compounds and compositions and uses thereof” (Sunovion Pharmaceuticals Inc., priority 2016, dated 2021).
